Values belong to the compound of their own block, whether it stands above or below them.
What was measured:
Assay type in all cases: physicochemical
[1] = Form change before and after drying (XRPD); conditions: for Form change before and after drying: air dried at RT
Experimental: The wet sample was vacuum dried at RT for 3 hrs. […] A solid was obtained with a yield of 62.2%. […] (peak temperature). Based on the integrals in NMR spectrum, the stoichiometric ratio of adipic acid:freebase was determined to be 1.06. A peak of EtOAc was observed. Around 0.07 molar EtOAc (0.8 wt %) was detected, which was consistent with TGA weight loss.
(peak), and one small endotherm at 158.8° C. […] Based on the integrals, the stoichiometric ratio of adipic acid:freebase was determined to be 1.65.
(peak temperature). Based on the integrals, the stoichiometric ratio of adipic acid:freebase was determined to be 1.06. Peak of THF was observed. Around 0.17 molar THF (1.9 wt %) was detected, which was consistent with TGA weight loss.
(§1) Compound B Form A was obtained from an acetone system and the sample was air dried at RT. […] (peak temperature) before the possible overlapped peak with peak temperature at 156.3° C. (FIG. 12). Based on the integrals, the stoichiometric ratio of fumaric acid:freebase was determined to be 1.03. A peak of acetone was observed and approximately 0.49 molar acetone (4.4 wt %) was detected. The HPLC purity of Compound B Form A was determined to be 93.56 area %. […] Around 0.39 molar acetone (3.5 wt %) was still detected. One endotherm at 58.7° C. and an overlapped peak with peak temperature at 157.1° C. were still observed on the sample obtained after heating. The first endotherm might be caused by re-adsorption of moisture. Since ˜3.5 wt % acetone was still detected from NMR, Compound B Form A is expected to be an acetone/H2O co-solvate.
Compound C Form A was obtained from EtOAc system and the sample was air dried at RT. […] HPLC purity of Compound C Form A was determined to be 95.18 area %.

[2] = Heating under N2 protection (VT-XRPD), form change
Experimental: as §1, with “co-solvate. […]” for “co-solvate.”

[3] = Static storage at 25° C./97% RH and 40° C./75% RH; conditions: after 7 days
Experimental: Amorphous material of Compound A (mono adipate salt) was successfully prepared through freeze drying. Characterisation of the initial batch of samples were all shown to be amorphous by XRPD and the NMR's contained ca. 1.1 eq. adipic acid with varying quantities of residual solvent, except for acetonitrile/water (1:1) which contained no residual solvent. […] Static storage at 25° C./97% RH and 40° C./75% RH after 7 days were all shown to have deliquesced.

[4] = Slurry competition between Compound A Form A and B
Experimental: The suspensions were stirred at a speed of 750 rpm and tested by XRPD in transmission mode.

[5] = VH-XRPD analysis / transitions of forms at varying relative humidity; conditions: dehydrated
Description: FIG. 19. The sample then reverts to the original form upon reaching 30% RH. […] Transitions of Forms of Compound A at varying RH.

[6] = Approximate solubility at RT (stepwise solvent addition until visually dissolved)
Experimental: The solubility of starting material was estimated at RT in 20 solvents. For each experiment, approximately 2 mg of sample was added into a 3-mL glass vial. Solvents in Table 32 were then added stepwise (50, 50, 200, 700 μL) into the vials until the solids were dissolved visually or a total volume of 1 mL was reached.

[7] = heating to 100° C. under N2 protection, cooled down and exposed to ambient conditions

- Form change before and after drying [1]: No form change was observed
- Form change after heating [2, 7]: no form change was observed
SMILES: C=CC(=O)N1CCN(c2nc(OC[C@@H]3CCCN3C)nc3c(F)c(-c4nc(N)cc(C)c4C(F)(F)F)c(Cl)cc23)[C@@H](C)C1.O=C(O)/C=C/C(=O)O (atropisomer, axis not shown) [Compound B Form A]

- Form change after heating [2, 7]: no form change was observed
SMILES: C=CC(=O)N1CCN(c2nc(OC[C@@H]3CCCN3C)nc3c(F)c(-c4nc(N)cc(C)c4C(F)(F)F)c(Cl)cc23)[C@@H](C)C1.CC(=O)O (atropisomer, axis not shown) [Compound F Form A]

- Form change before and after drying [1]: No form change was observed
- Form change after heating ([2]; heating to 100° C. under N2 protection, cooled down and exposed to ambient conditions, listed as Form A of Compound C): no form change was observed
SMILES: C=CC(=O)N1CCN(c2nc(OC[C@@H]3CCCN3C)nc3c(F)c(-c4nc(N)cc(C)c4C(F)(F)F)c(Cl)cc23)[C@@H](C)C1 [Compound C Form A]

- Solubility ([6]; 1,4-Dioxane): S > 38.0 mg/mL
- Solubility ([6]; 2-MeTHF): S > 40.0 mg/mL
- Solubility ([6]; Acetone): S > 40.0 mg/mL
- Solubility ([6]; Anisole): S > 38.0 mg/mL
- Solubility ([6]; CPME): S > 40.0 mg/mL
- Solubility ([6]; DCM): S > 38.0 mg/mL
- Solubility ([6]; DMSO): S > 38.0 mg/mL
- Solubility ([6]; EtOAc): S > 40.0 mg/mL
- Solubility ([6]; H2O): S < 2.1 mg/mL
- Solubility ([6]; IPAc): S > 40.0 mg/mL
- Solubility ([6]; MEK): S > 46.0 mg/mL
- Solubility ([6]; MIBK): S > 42.0 mg/mL
- Solubility ([6]; MeOH): S > 42.0 mg/mL
- Solubility ([6]; THF): S > 44.0 mg/mL
- Solubility ([6]; Toluene): S > 40.0 mg/mL
- Solubility ([6]; n-Heptane): S < 2.0 mg/mL
SMILES: C=CC(=O)N1CCN(c2nc(OC[C@@H]3CCCN3C)nc3c(F)c(-c4nc(N)cc(C)c4C(F)(F)F)c(Cl)cc23)[C@@H](C)C1 [starting material]

Second part, the compound before the results:

SMILES: C=CC(=O)N1CCN(c2nc(OC[C@@H]3CCCN3C)nc3c(F)c(-c4nc(N)cc(C)c4C(F)(F)F)c(Cl)cc23)[C@@H](C)C1.O=C(O)CCCCC(=O)O [Amorphous material of Compound A]
- Static storage observation ([3]; 25° C./97% RH): deliquesced
- Static storage observation ([3]; 40° C./75% RH): deliquesced

SMILES: C=CC(=O)N1CCN(c2nc(OC[C@@H]3CCCN3C)nc3c(F)c(-c4nc(N)cc(C)c4C(F)(F)F)c(Cl)cc23)[C@@H](C)C1.O=C(O)CCCCC(=O)O [Compound A Form A + B]
- Slurry competition result (XRPD form) ([4]; IPA, 5° C.): Compound A Form A
- Slurry competition result (XRPD form) ([4]; IPA, 5° C., listed as Compound A Form A+B): turned to Compound A Form A
- Slurry competition result (XRPD form) ([4]; IPA, −20° C.): Compound A Form A
- Slurry competition result (XRPD form) ([4]; IPA, −20° C., listed as Compound A Form A+B): turned to Compound A Form A
- Slurry competition result (XRPD form) ([4]; Toluene, 5 to RT (RT for 18 days)): Compound A Form A
- Slurry competition result (XRPD form) ([4]; Toluene, 5 to RT (RT for 18 days), listed as Compound A Form A+B): Compound A Form A was observed
- Slurry competition result (XRPD form) ([4]; Toluene, 5° C., after 5 days): a mixture of Compound A Form A+B was observed

SMILES: C=CC(=O)N1CCN(c2nc(OC[C@@H]3CCCN3C)nc3c(F)c(-c4nc(N)cc(C)c4C(F)(F)F)c(Cl)cc23)[C@@H](C)C1 [Compound A Form B]
- Form change after drying ([1]; air drying at RT overnight): No form change was observed
- Form change after heating ([2]; heating to 90° C. under N2 protection): no form change was observed

SMILES: C=CC(=O)N1CCN(c2nc(OC[C@@H]3CCCN3C)nc3c(F)c(-c4nc(N)cc(C)c4C(F)(F)F)c(Cl)cc23)[C@@H](C)C1 [Compound A Form D]
- Form after dehydration [5]: formed Compound A Form C

— US12565485B2, “Solid forms of 1-((S)-4-((R)-7-(6-amino-4-methyl-3-(trifluoromethyl)pyridin-2-yl)-6-chloro-8-fluoro-2-(((s)-1-methylpyrrolidin-2-yl)methoxy)quinazolin-4-yl)-3-methylpiperazin-1-yl)prop-2-en-1-one” (Genentech, Inc., priority 2022, dated 2026)
